Measurements reported in the NIST ThermoML archive (doi:10.1016/j.fluid.2015.06.045).
“And” between values parts separate entries of the source, which are not always exact repeats. Identical values can stand only once.

Tests used:
[1] = Closed cell (Static) method
[2] = molar heat capacity at constant pressure

NCCO [2-aminoethan-1-ol]
vapor or sublimation pressure, [1]
Conditions	Crystal	Metastable liquid
258.17 K	0.00078 kPa and 0.00077 kPa and 0.00076 kPa	–
263.17 K	0.00142 kPa	–
268.17 K	0.00264 kPa and 0.00265 kPa	–
273.65 K	0.0052 kPa and 0.00519 kPa and 0.00518 kPa	0.00646 kPa
275.65 K	0.00658 kPa	0.00785 kPa
278.15 K	0.00883 kPa and 0.00884 kPa	0.00997 kPa and 0.00998 kPa
280.65 K	0.01183 kPa and 0.01185 kPa	0.01262 kPa and 0.01263 kPa
283.15 K	0.01576 kPa and 0.01575 kPa	0.0159 kPa and 0.01591 kPa and 0.01587 kPa
285.65 K	–	0.0199 kPa and 0.01992 kPa
288.15 K	–	0.02494 kPa and 0.02505 kPa and 0.02501 kPa
290.65 K	–	0.03092 kPa and 0.03099 kPa
293.15 K	–	0.03842 kPa and 0.03848 kPa and 0.03849 kPa
295.65 K	–	0.04735 kPa and 0.04742 kPa and 0.04744 kPa
298.15 K	–	0.05877 kPa and 0.05861 kPa and 0.05859 kPa
300.65 K	–	0.07124 kPa and 0.07125 kPa and 0.07143 kPa
303.15 K	–	0.08725 kPa and 0.08736 kPa
303.16 K	–	0.08722 kPa

[2], 100 kPa, Ideal gas
Conditions	molar heat capacity at constant pressure [J/K/mol]
100 K	42.58
150 K	53.66
200 K	64.26
250 K	74.41
273.15 K	79.16
298.15 K	84.38
300 K	84.78
400 K	106.54
500 K	127.9
600 K	146.98
700 K	163.08
800 K	176.25
900 K	186.86
1000 K	195.39

[2], 101.33 kPa, Metastable liquid, Large sample (1 g) DSC
Conditions	molar heat capacity at constant pressure
265.75 K	160.55 J/K/mol
270.85 K	161.8 J/K/mol
275.96 K	162.46 J/K/mol
281.07 K	163.71 J/K/mol
286.17 K	164.54 J/K/mol
291.28 K	165.54 J/K/mol and 165.87 J/K/mol
296.38 K	166.54 J/K/mol and 167.29 J/K/mol
301.49 K	168.12 J/K/mol and 167.79 J/K/mol
306.59 K	169.2 J/K/mol and 169.12 J/K/mol
311.69 K	170.28 J/K/mol and 170.53 J/K/mol
316.8 K	171.36 J/K/mol and 171.69 J/K/mol
321.9 K	172.61 J/K/mol and 173.11 J/K/mol
327.01 K	174.1 J/K/mol and 174.27 J/K/mol
332.12 K	175.68 J/K/mol and 175.35 J/K/mol
337.22 K	176.68 J/K/mol and 177.18 J/K/mol
342.33 K	178.1 J/K/mol and 178.59 J/K/mol
347.43 K	179.51 J/K/mol and 179.43 J/K/mol
352.54 K	181.26 J/K/mol and 181.34 J/K/mol

CN1CCCC1=O [N-methylpyrrolidone]
[1], Liquid
Conditions	vapor or sublimation pressure
273.65 K	0.00631 kPa and 0.0063 kPa
278.15 K	0.0094 kPa and 0.00937 kPa and 0.00938 kPa
283.15 K	0.01432 kPa
288.15 K	0.02159 kPa and 0.02162 kPa
293.15 K	0.03193 kPa and 0.03195 kPa and 0.03196 kPa
298.15 K	0.04664 kPa and 0.04665 kPa and 0.0466 kPa
303.15 K	0.06708 kPa and 0.06709 kPa
308.15 K	0.09518 kPa and 0.09516 kPa
308.17 K	0.0951 kPa

[2], 100 kPa, Ideal gas
Conditions	molar heat capacity at constant pressure [J/K/mol]
100 K	59.31
150 K	72.28
200 K	85.04
250 K	99.6
273.15 K	106.98
298.15 K	115.26
300 K	115.89
400 K	149.87
500 K	180.98
600 K	207.43
700 K	229.6
800 K	248.26
900 K	264.08
1000 K	277.55

[2], 101.33 kPa, Liquid, Large sample (1 g) DSC
Conditions	molar heat capacity at constant pressure
265.75 K	168.2 J/K/mol and 168.12 J/K/mol
270.85 K	169.2 J/K/mol and 169.03 J/K/mol
275.96 K	169.62 J/K/mol and 169.86 J/K/mol
281.07 K	170.95 J/K/mol and 170.78 J/K/mol
286.17 K	171.86 J/K/mol
291.28 K	173.36 J/K/mol and 172.86 J/K/mol
296.38 K	173.94 J/K/mol and 174.27 J/K/mol
301.49 K	175.35 J/K/mol and 175.52 J/K/mol
306.59 K	176.52 J/K/mol
311.69 K	177.93 J/K/mol and 177.85 J/K/mol
316.8 K	178.93 J/K/mol and 179.09 J/K/mol
321.9 K	180.01 J/K/mol and 180.42 J/K/mol
327.01 K	181.84 J/K/mol and 181.75 J/K/mol
332.12 K	183.25 J/K/mol
337.22 K	184.41 J/K/mol and 184.66 J/K/mol
342.33 K	185.75 J/K/mol and 186.16 J/K/mol
347.43 K	187.24 J/K/mol
352.54 K	188.57 J/K/mol and 188.82 J/K/mol
